Target: Proto-oncogene tyrosine-protein kinase Src (Homo sapiens, UniProt P12931)
Test: Inhibition of p60 c-Src tyrosine kinase (No inhibition); call rule not given here

Proto-oncogene tyrosine-protein kinase Src, sequence (P12931 2-536 limits assumed): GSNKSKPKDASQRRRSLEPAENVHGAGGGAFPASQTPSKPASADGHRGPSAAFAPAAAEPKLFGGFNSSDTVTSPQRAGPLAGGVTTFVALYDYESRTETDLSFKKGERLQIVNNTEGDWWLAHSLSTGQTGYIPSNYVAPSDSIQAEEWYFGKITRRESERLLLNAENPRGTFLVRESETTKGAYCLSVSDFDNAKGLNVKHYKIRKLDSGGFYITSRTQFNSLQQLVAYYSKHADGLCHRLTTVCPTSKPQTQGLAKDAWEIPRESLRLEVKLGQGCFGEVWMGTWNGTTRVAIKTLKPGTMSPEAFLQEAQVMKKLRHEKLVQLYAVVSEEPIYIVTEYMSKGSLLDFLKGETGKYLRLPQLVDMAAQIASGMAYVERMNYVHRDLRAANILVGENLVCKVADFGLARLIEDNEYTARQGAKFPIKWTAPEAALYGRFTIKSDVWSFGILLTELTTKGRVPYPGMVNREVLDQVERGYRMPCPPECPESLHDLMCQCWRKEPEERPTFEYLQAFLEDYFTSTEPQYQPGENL

Row | IC50 | Compound
1 | Not Active | Oc1cc2cccc[n+]2c2c(Cl)cccc12.[Cl-]

Target: T1, Casein kinase II (Homo sapiens, UniProt P19784+P67870+P68400)
Test: Inhibition of casein kinase II
Type: protein-complex assay

T1 sequence (P67870 whole entry): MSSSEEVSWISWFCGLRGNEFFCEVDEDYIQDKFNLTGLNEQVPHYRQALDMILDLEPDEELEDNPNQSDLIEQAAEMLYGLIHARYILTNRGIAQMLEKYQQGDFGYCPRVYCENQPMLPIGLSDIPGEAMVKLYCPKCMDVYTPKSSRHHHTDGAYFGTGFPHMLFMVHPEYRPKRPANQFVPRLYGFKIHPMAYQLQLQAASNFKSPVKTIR
T1 sequence (P68400 whole entry): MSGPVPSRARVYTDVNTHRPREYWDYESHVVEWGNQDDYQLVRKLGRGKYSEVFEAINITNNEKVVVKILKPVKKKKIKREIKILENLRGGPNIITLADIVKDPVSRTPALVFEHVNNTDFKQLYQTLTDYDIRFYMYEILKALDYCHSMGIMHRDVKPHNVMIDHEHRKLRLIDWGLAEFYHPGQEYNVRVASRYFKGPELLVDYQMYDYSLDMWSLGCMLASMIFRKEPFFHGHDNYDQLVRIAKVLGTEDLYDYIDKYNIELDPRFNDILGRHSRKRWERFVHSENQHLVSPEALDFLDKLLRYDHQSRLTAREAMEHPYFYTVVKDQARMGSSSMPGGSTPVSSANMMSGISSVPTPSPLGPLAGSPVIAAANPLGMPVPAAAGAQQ
T1 sequence (P19784 whole entry): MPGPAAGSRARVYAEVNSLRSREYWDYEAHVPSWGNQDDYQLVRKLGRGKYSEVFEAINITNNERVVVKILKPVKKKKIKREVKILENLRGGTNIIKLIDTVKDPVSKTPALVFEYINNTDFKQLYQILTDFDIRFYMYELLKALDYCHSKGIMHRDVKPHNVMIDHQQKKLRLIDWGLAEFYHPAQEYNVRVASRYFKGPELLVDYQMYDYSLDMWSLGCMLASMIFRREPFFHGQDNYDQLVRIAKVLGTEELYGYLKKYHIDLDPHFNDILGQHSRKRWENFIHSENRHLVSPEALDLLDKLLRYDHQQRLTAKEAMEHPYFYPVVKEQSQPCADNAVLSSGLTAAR

Row | IC50 [µM] | Compound
2 | 5 | Oc1cc2cccc[n+]2c2c(Cl)cccc12.[Cl-]

Target: T1, Casein kinase II
Test: Inhibitory concentration was determined towards Casein kinase 2
Type: protein-complex assay

Row | IC50 [µM] | Compound
3 | 43 | Oc1cc2cccc[n+]2c2ccccc12 [listing 1 of 2 here]
4 | 900 | O/C(=C/c1ccccn1)c1ccc(Cl)cc1Cl
5 | 130 | O/C(=C/c1ccccn1)c1cccc(Cl)c1Cl
6 | 210 | Oc1cc2cccc[n+]2c2ccc(Cl)cc12
7 | 2500 | O/C(=C/c1ccccn1)c1ccccc1
8 | 110 | Nc1cc2cccc[n+]2c2ccccc12 [listing 1 of 2 here]
9 | 100 | Nc1cc2cccc[n+]2c2ccccc12 [listing 2 of 2 here]
10 | 24 | Nc1cc2cccc[n+]2c2cc(Cl)ccc12
11 | 50 | Nc1cc2cccc[n+]2c2c(Cl)cccc12
12 | 1200 | O/C(=C/c1ccccn1)c1ccccc1Cl
13 | 84 | Nc1cc2cccc[n+]2c2cccc(Cl)c12
14 | 18 | Oc1cc2cccc[n+]2c2cccc(Cl)c12
15 | 50 | Oc1cc2cccc[n+]2c2ccccc12 [listing 2 of 2 here]
16 | 580 | O/C(=C/c1ccccn1)c1c(Cl)cccc1Cl
17 | 820 | O/C(=C/c1ccccn1)c1ccccc1Br
18 | 39 | Oc1cc2cccc[n+]2c2cc(Cl)ccc12

Target: Cyclin-dependent kinase 1 (Homo sapiens, UniProt P06493)
Sequence (P06493 whole entry): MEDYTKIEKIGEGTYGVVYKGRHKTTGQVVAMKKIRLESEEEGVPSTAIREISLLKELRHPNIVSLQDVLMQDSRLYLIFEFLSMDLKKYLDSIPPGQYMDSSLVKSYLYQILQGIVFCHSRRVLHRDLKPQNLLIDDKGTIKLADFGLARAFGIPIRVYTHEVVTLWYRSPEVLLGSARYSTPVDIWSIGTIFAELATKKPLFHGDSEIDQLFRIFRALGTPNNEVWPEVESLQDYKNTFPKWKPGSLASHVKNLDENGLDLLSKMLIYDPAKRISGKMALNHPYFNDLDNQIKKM
Test: Inhibition of cyclin-dependent kinase 1 cdc2

Row | IC50 [µM] | Compound
19 | > 1000 | Oc1cc2cccc[n+]2c2c(Cl)cccc12.[Cl-]

Target: Protein kinase C (PKC)
Test: Inhibition of protein kinase C
Type: protein assay

Row | IC50 [µM] | Compound
20 | 38 | Oc1cc2cccc[n+]2c2c(Cl)cccc12.[Cl-]
